From patent US8933224B2, “Triazine derivatives” (Pfizer Inc., priority 2013, dated 2015)

Biological target: rat PDE10 enzyme (Rattus norvegicus (Rat), UniProt Q9QYJ6)
Experiment: PDE10 scintillation proximity assay (SPA), inhibition of rat PDE10 enzyme activity
Type: biochemical
Conditions: geometric mean of 2-4 determinations unless otherwise indicated (b: ≧5 determinations; c: single determination)
Method: PDE10 activity was measured using a scintillation assay (SPA-based method) similar to that previously described by Seeger, T. F. et al., Brain Research 985 (2003) 113-126. The compounds' relative activity as PDE10 inhibitors was investigated by assaying a fixed amount of enzyme in the presence of the test compound and low substrate concentration (cAMP) such that an IC50 could be determined. […] The assay is performed in a 384-well format with 50 μL assay buffer (50 mM TRIS pH 7.5; 1.3 mM MgCl2; 0.01% Brij) containing enough PDE10 to convert ˜20% of 20 nM ^3H-cAMP, and a range of inhibitors. Reactions are incubated for 30 minutes at 25° C. The addition of 20 μL of 8 mg/ml yttrium silicate SPA beads (PerkinElmer) stops the reaction. The plates are sealed (TopSeal, PerkinElmer) and the beads are allowed to settle for 8 hrs, after which they are read on the Trilux Microbeta overnight. ^1Rat enzyme preparation:^2Human enzyme preparation:
The recombinant Bacmid was isolated and used to transfect sf9 insect cells to generate a viral stock. To generate cell paste for purification, sf21 cells were infected with the virus stock and cells were harvested 72 hours after infection as described in Seeger, T. F. et al., Brain Research 985 (2003) 113-126. Insect cell paste was lysed and after centrifugation, the supernatant was chromatographed on Ni-NTA agarose (Qiagen) followed by Mono Q (GE Healthcare Life Sciences) as described in Seeger, T. F. et al., Brain Research 985 (2003) 113-126.

Sequence of rat PDE10 enzyme (Q9QYJ6 24-794): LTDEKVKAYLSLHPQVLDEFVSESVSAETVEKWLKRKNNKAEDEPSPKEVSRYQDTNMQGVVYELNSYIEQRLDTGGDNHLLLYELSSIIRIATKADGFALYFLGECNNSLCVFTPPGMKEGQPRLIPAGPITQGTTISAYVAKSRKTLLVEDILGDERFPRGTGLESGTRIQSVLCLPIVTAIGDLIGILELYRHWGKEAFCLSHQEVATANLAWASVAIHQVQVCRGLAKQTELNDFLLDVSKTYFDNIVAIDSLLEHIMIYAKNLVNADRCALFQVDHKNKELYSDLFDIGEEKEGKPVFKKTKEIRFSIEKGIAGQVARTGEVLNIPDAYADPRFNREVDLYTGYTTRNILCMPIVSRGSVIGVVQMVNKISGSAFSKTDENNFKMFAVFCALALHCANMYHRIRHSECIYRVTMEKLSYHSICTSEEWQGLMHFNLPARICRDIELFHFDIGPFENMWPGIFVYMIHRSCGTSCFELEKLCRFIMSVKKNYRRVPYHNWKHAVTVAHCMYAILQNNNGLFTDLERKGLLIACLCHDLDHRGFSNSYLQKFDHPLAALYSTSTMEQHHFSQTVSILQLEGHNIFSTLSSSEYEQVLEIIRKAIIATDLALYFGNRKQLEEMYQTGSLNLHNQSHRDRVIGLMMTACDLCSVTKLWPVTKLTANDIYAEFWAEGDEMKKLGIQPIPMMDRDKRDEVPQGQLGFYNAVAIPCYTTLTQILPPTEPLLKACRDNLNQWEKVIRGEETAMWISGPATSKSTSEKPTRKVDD

Compound: Cc1nc(C2CCOCC2)c2c(N3CCc4nc(C5CC5)ncc4C3)ncnn12 [Example 61, 2-cyclopropyl-6-[7-methyl-5-(tetrahydro-2H-pyran-4-yl)imidazo[5,1-f][1,2,4]triazin-4-yl]-5,6,7,8-tetrahydropyrido[4,3-d]pyrimidine]
- IC50: < 3.52 nM

Compound: COc1cc2c(cc1OC)CN(c1ncnn3c(C)nc(-c4ccccc4C)c13)CC2 [Example 62, 6,7-dimethoxy-2-[7-methyl-5-(2-methylphenyl)imidazo[5,1-f][1,2,4]triazin-4-yl]-1,2,3,4-tetrahydroisoquinoline]
- IC50: 3.87 nM

Compound: Cc1nc([C@H]2CCOC2)c2c(N3CCc4ncncc4C3)ncnn12 [Example 63, 6-{7-methyl-5-[(3R)-tetrahydrofuran-3-yl]imidazo[5,1-f][1,2,4]triazin-4-yl}-5,6,7,8-tetrahydropyrido[4,3-d]pyrimidine]
- IC50: 133 nM

Compound: COc1cc2c(cc1OC)CN(c1ncnn3c(C)nc(CC(C)C)c13)CC2 [Example 64, 2-(5-isobutyl-7-methylimidazo[5,1-f][1,2,4]triazin-4-yl)-6,7-dimethoxy-1,2,3,4-tetrahydroisoquinoline]
- IC50: 1.18 nM

Compound: Cc1nc(-c2ccccc2F)c2c(N3CCc4cccnc4C3)ncnn12 [Example 65]
- IC50: 2.98 nM

Compound: COc1ccc2c(n1)CCN(c1ncnn3c(C)nc(-c4ccccc4F)c13)C2 [Example 66, 6-[5-(2-fluorophenyl)-7-methylimidazo[5,1-f][1,2,4]triazin-4-yl]-2-methoxy-5,6,7,8-tetrahydro-1,6-naphthyridine]
- IC50: 2.6 nM

Compound: Cc1nc(-c2ccccc2F)c2c(N3CCc4nc(N(C)C)ccc4C3)ncnn12 [Example 67, 6-[5-(2-fluorophenyl)-7-methylimidazo[5,1-f][1,2,4]triazin-4-yl]-N,N-dimethyl-5,6,7,8-tetrahydro-1,6-naphthyridin-2-amine]
- IC50: 0.325 nM

Compound: COc1nccc2c1CN(c1ncnn3c(C)nc(-c4ccccc4F)c13)CC2 [Example 68, 2-[5-(2-fluorophenyl)-7-methylimidazo[5,1-f][1,2,4]triazin-4-yl]-8-methoxy-1,2,3,4-tetrahydro-2,7-naphthyridine]
- IC50: 0.895 nM

Compound: COc1ccc2c(n1)CN(c1ncnn3c(C)nc(-c4ccccc4F)c13)CC2 [Example 69, 7-[5-(2-fluorophenyl)-7-methylimidazo[5,1-f][1,2,4]triazin-4-yl]-2-methoxy-5,6,7,8-tetrahydro-1,7-naphthyridine]
- IC50: 7.3 nM

Compound: Cc1ccc2c(n1)CN(c1ncnn3c(C)nc(-c4ccccc4F)c13)CC2 [Example 73, 7-[5-(2-fluorophenyl)-7-methylimidazo[5,1-f][1,2,4]triazin-4-yl]-2-methyl-5,6,7,8-tetrahydro-1,7-naphthyridine]
- IC50: 6.81 nM

Compound: Cc1nc2c(o1)CN(c1ncnn3c(C)nc([C@H]4CCOC4)c13)CC2 [Example 76, 7-methyl-4-(2-methyl-6,7-dihydro[1,3]oxazolo[5,4-c]pyridin-5(4H)-yl)-5-[(3R)-tetrahydrofuran-3-yl]imidazo[5,1-f][1,2,4]triazine]
- IC50: 22.9 nM

Compound: COc1cc2c(cc1OC)CN(c1ncnn3c(C)nc(C4CCCO4)c13)CC2 (stereo not shown) [Example 77, 6,7-dimethoxy-2-[7-methyl-5-(tetrahydrofuran-2-yl)imidazo[5,1-f][1,2,4]triazin-4-yl]-1,2,3,4-tetrahydroisoquinoline]
- IC50: 30 nM

Compound: Cc1nc([C@H]2CCCO2)c2c(N3CCc4noc(C5CC5)c4C3)ncnn12 [Example 78, 4-(3-cyclopropyl-6,7-dihydro[1,2]oxazolo[4,3-c]pyridin-5(4H)-yl)-7-methyl-5-[(2R)-tetrahydrofuran-2-yl]imidazo[5,1-f][1,2,4]triazine]
- IC50: 3.89 nM

Compound: Cc1nc([C@H]2CCCO2)c2c(N3CCc4nc(C5CC5)ncc4C3)ncnn12 [Example 79]
- IC50: 11.2 nM

Compound: CCc1nn(C)c2c1CN(c1ncnn3c(C)nc([C@H]4CCCO4)c13)CC2 [Example 80, 4-(3-ethyl-1-methyl-1,4,6,7-tetrahydro-5H-pyrazolo[4,3-c]pyridin-5-yl)-7-methyl-5-[(2R)-tetrahydrofuran-2-yl]imidazo[5,1-f][1,2,4]triazine]
- IC50: 17.6 nM

Compound: Cc1nc2c(s1)CN(c1ncnn3c(C)nc([C@H]4CCCO4)c13)CC2 [Example 81]
- IC50: 9.73 nM

Compound: COc1cc2c(cc1OC)CN(c1ncnn3c(C)nc([C@H]4CCCO4)c13)CC2 [Example 82, 6,7-dimethoxy-2-{7-methyl-5-[(2R)-tetrahydrofuran-2-yl]imidazo[5,1-f][1,2,4]triazin-4-yl}-1,2,3,4-tetrahydroisoquinoline]
- IC50: 37.2 nM

Compound: COc1cc2c(cc1OC)CN(c1ncnn3c(C)nc([C@@H]4CCCO4)c13)CC2 [Example 83, 6,7-dimethoxy-2-{7-methyl-5-[(2S)-tetrahydrofuran-2-yl]imidazo[5,1-f][1,2,4]triazin-4-yl}-1,2,3,4-tetrahydroisoquinoline]
- IC50: 29.7 nM

Compound: Cc1nn(C)c2c1CN(c1ncnn3c(C)nc([C@H]4CCOC4)c13)CC2 [Example 84, 4-(1,3-dimethyl-1,4,6,7-tetrahydro-5H-pyrazolo[4,3-c]pyridin-5-yl)-7-methyl-5-[(3R)-tetrahydrofuran-3-yl]imidazo[5,1-f][1,2,4]triazine]
- IC50: 8.1 nM

Compound: COc1ccc2c(c1)CCN(c1ncnn3c(C)nc([C@H]4CCOC4)c13)C2 [Example 87, 6-methoxy-2-{7-methyl-5-[(3R)-tetrahydrofuran-3-yl]imidazo[5,1-f][1,2,4]triazin-4-yl}-1,2,3,4-tetrahydroisoquinoline]
- IC50: 1.26 nM

Compound: Cc1nc([C@@H]2CCOC2)c2c(N3CCc4nc(C5CC5)nc(C(F)(F)F)c4C3)ncnn12 [Example 89, 2-cyclopropyl-6-{7-methyl-5-[(3S)-tetrahydrofuran-3-yl]imidazo[5,1-f][1,2,4]triazin-4-yl}-4-(trifluoromethyl)-5,6,7,8-tetrahydropyrido[4,3-d]pyrimidine]
- IC50: 0.561 nM

Compound: Cc1nn(C)c2c1CN(c1ncnn3c(C)nc([C@@H]4CCOC4)c13)CC2 [Example 93, 4-(1,3-dimethyl-1,4,6,7-tetrahydro-5H-pyrazolo[4,3-c]pyridin-5-yl)-7-methyl-5-[(3S)-tetrahydrofuran-3-yl]imidazo[5,1-f][1,2,4]triazine]
- IC50: 0.761 nM

Compound: Cc1nc(CC(C)C)c2c(N3CCc4noc(C5CC5)c4C3)ncnn12 [Example 94, 4-(3-cyclopropyl-6,7-dihydro[1,2]oxazolo[4,3-c]pyridin-5(4H)-yl)-7-methyl-5-(2-methylpropyl)imidazo[5,1-f][1,2,4]triazine]
- IC50: 2.89 nM

Compound: Cc1nc(CC(C)C)c2c(N3CCc4ncccc4C3)ncnn12 [Example 97, 6-[7-methyl-5-(2-methylpropyl)imidazo[5,1-f][1,2,4]triazin-4-yl]-5,6,7,8-tetrahydro-1,6-naphthyridine]
- IC50: 9.05 nM

Compound: Cc1nc([C@H]2CCOC2)c2c(N3CCc4c(cnn4C4CC4)C3)ncnn12 [Example 98, 4-(1-cyclopropyl-1,4,6,7-tetrahydro-5H-pyrazolo[4,3-c]pyridin-5-yl)-7-methyl-5-[(3R)-tetrahydrofuran-3-yl]imidazo[5,1-f][1,2,4]triazine]
- IC50: 11.6 nM

Compound: Cc1nc([C@H]2CCOC2)c2c(N3CCc4nn(C)cc4C3)ncnn12 [Example 99, 7-methyl-4-(2-methyl-2,4,6,7-tetrahydro-5H-pyrazolo[4,3-c]pyridin-5-yl)-5-[(3R)-tetrahydrofuran-3-yl]imidazo[5,1-f][1,2,4]triazine]
- IC50: 6.52 nM

Compound: Cc1nc([C@H]2CCOC2)c2c(N3CCc4nn(C(C)C)cc4C3)ncnn12 [Example 100, 7-methyl-4-[2-(propan-2-yl)-2,4,6,7-tetrahydro-5H-pyrazolo[4,3-c]pyridin-5-yl]-5-[(3R)-tetrahydrofuran-3-yl]imidazo[5,1-f][1,2,4]triazine]
- IC50: 23 nM

Compound: Cc1c2c(nn1C)CCN(c1ncnn3c(C)nc([C@@H]4CCOC4)c13)C2 [Example 101, 4-(2,3-dimethyl-2,4,6,7-tetrahydro-5H-pyrazolo[4,3-c]pyridin-5-yl)-7-methyl-5-[(3S)-tetrahydrofuran-3-yl]imidazo[5,1-f][1,2,4]triazine]
- IC50: 0.283 nM

Compound: Cc1nc(C2CCOCC2)c2c(N3CCn4ncc(C(F)(F)F)c4C3)ncnn12 [Example 102, 7-methyl-5-(tetrahydro-2H-pyran-4-yl)-4-[3-(trifluoromethyl)-6,7-dihydropyrazolo[1,5-a]pyrazin-5(4H)-yl]imidazo[5,1-f][1,2,4]triazine]
- IC50: 3.94 nM

Compound: Cc1nn(C)c2c1CN(c1ncnn3c(C)nc(C4CCOCC4)c13)CC2 [Example 103, 4-(1,3-dimethyl-1,4,6,7-tetrahydro-5H-pyrazolo[4,3-c]pyridin-5-yl)-7-methyl-5-(tetrahydro-2H-pyran-4-yl)imidazo[5,1-f][1,2,4]triazine]
- IC50: 5.13 nM

Compound: Cc1nc(C2CCOCC2)c2c(N3CCc4nn(C)c(C(C)C)c4C3)ncnn12 [Example 104, 7-methyl-4[2-methyl-3-(propan-2-yl)-2,4,6,7-tetrahydro-5H-pyrazolo[4,3-c]pyridin-5-yl]-5-(tetrahydro-2H-pyran-4-yl)imidazo[5,1-f][1,2,4]triazine]
- IC50: 1.08 nM
